RP-LC retention time data for 37 compounds are collected here from the METLIN SMRT retention time set (Domingo-Almenara et al. 2019).

A short description of this data set: gradient 5% acetonitrile 3 min, to 50% in 2 min, to 85% in 15 min, held 3 min, 100 µL/min. The conditions noted are these: column: Zorbax Extend-C18 2.1 x 50 mm; eluents: water / acetonitrile, 0.1% formic acid. The method in brief:
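Standards, all pure, were combined into mixtures of ~100 molecules and run at 100 μL/min on a Zorbax Extend-C18 column (2.1 × 50 mm, 1.8 μm) with water and acetonitrile, each containing 0.1% formic acid. A coupled quadrupole time-of-flight mass spectrometer operated in positive and negative ionization mode. Retention time values come from computationally picked adduct peaks, each inspected manually.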
`O=C(Nc1nc2c(s1)CCc1ccccc1-2)Nc1c(F)cccc1F` showed an RP-LC retention time of 914 s.

In turn, `Cc1ccc(-c2noc(Cc3nc(-c4ccc5c(c4)OCO5)cs3)n2)cc1` showed an RP-LC retention time of 1220 s.

Turning to `Cc1ccc(C(=O)N2CCCC(COc3ccc(C(=O)NC4CC4)cc3)C2)cc1F` (configuration not stated), the RP-LC retention time turned out to be 849 s.

For the compound `CCN1CCn2cc(S(=O)(=O)Nc3cc(OC)ccc3OC)cc2C1=O`, the RP-LC retention time stood at 719 s.

The compound `COc1cc(OC)cc(-c2nc(Cn3c(C)nc4ccccc4c3=O)no2)c1` displayed an RP-LC retention time of 876 s.

`CCc1ccc(S(=O)(=O)c2cnc(N3CCN(c4ccc(OC)cc4)CC3)nc2N)cc1` gave an RP-LC retention time of 996 s.

Compound `CN(C)c1cccc(C(=O)N2CCCC2c2nc(-c3ccc(F)cc3)no2)c1` (configuration not stated) had an RP-LC retention time of 985 s.

With `COc1ccc(C(C)NC(=O)C2c3ccccc3CCN2C(=O)C2CC2)cc1OC` (configuration not stated), the RP-LC retention time is 802 s.

`Cc1ccc(CC(=O)N2CCc3cc(-c4csc(C)n4)ccc32)cc1`: the RP-LC retention time is 1070 s.

For the compound `COCCCNc1c(-c2cccc(F)c2)nc2sc(C(=O)N3CCCC3)c(C)n12`, the RP-LC retention time is 824 s.

In turn, `O=C(CC(c1ccccc1)c1ccccc1)Nc1cc(N2CCOCC2)ncn1` displayed an RP-LC retention time of 752 s.

On to `CC1(CNC(=O)COc2ccc(F)cc2)CCOCC1`, for which the RP-LC retention time was determined as 750 s.

`Cc1cc(-n2nnc(C(=O)O)c2-c2ccncc2)ccc1F` came in with an RP-LC retention time of 654 s.

`COc1ccc(C)cc1NC(=O)N1CCC2(CC1)NC(=O)c1ccc(Cl)cc1N2`: the RP-LC retention time was 806 s.

With `O=C(NCCCN1CCCC1)c1cc(-c2cccnc2)nc2ccccc12`, the RP-LC retention time came to 562 s.

In turn, `O=C(NCc1cccs1)c1ccc(-n2cccn2)nn1` showed an RP-LC retention time of 737 s.

Take `Cn1cc(-c2ccccc2)c2c1c(=O)n(C)c1nn(Cc3nc(-c4ccccc4)no3)c(=O)n21`: the RP-LC retention time was 1040 s.

The compound `COC(=O)c1c(C)c(C(=O)C(C)N(CC(C)C)C(=O)c2ccc(F)cc2)c(C)n1C` (configuration not stated) came in with an RP-LC retention time of 1020 s.

As to `CCCCC(=O)Nc1nc(-c2ccc3c(c2)N(C)C(=O)CO3)cs1`, the RP-LC retention time is 900 s.

`O=C(c1ccc(Br)cc1)N1CCc2nc[nH]c2C1` showed an RP-LC retention time of 578 s.

`Cc1ccc(-c2nc3nc(C)cc(N4CCN(c5ccccn5)CC4)n3n2)cc1` yielded an RP-LC retention time of 629 s.

Regarding `NC(=O)CSc1nccn1Cc1cccs1`, the RP-LC retention time was 516 s.

As for `COc1ccc(CNC(=O)c2csc(-c3cn(C)c4ncccc34)n2)c(OC)c1`, the RP-LC retention time stood at 924 s.

In the case of `CC1CCN(c2ccc(-c3noc(CN4CCN(c5ccccn5)CC4)n3)cn2)CC1`, the RP-LC retention time was found to be 570 s.

`O=C(NC1CCCCC1)N1CCC(c2noc(COCC3CC3)n2)CC1` came in with an RP-LC retention time of 830 s.

Consider `CC(C)(C)c1noc(-c2ccc(-n3cnc(C(=O)NCC4CC4)c3)nc2)n1`, for which the RP-LC retention time is 896 s.

As for `COc1ccc(-c2csc(Nc3ccc(S(=O)(=O)Nc4cc(C)on4)cc3)n2)cc1`, the RP-LC retention time is 939 s.

In turn, `COc1ccc(CC(=O)Nc2ccc(Nc3cc(OC)nc(C)n3)cc2)cc1` came in with an RP-LC retention time of 617 s.

`CCNC(=O)Nc1ccc2c(c1)CN(Cc1sccc1C)CCO2` registered an RP-LC retention time of 608 s.

For `Cc1ccc(Cn2c(CN3CCC(C(=O)NCc4ccccn4)CC3)cc3ccccc32)cc1`, the RP-LC retention time is 655 s.

On to `CCOC(=O)c1c(S(=O)(=O)N2CCC(C(=O)N3CCc4ccccc4C3)CC2)c(C)n(C)c1C`, for which the RP-LC retention time came to 872 s.

Compound `COc1ccccc1N1CCN(C[C@@H](C(=O)NC(C)(C)C)c2ccccc2)CC1` displayed an RP-LC retention time of 812 s.

In turn, `COCCC1(NC(=O)c2ccsc2)CCN(S(C)(=O)=O)CC1` registered an RP-LC retention time of 691 s.

Turning to `CC(=O)Nc1ccc(NC(=O)Cn2ccc3ccc(-c4nnc(C)o4)cc32)cc1`, the RP-LC retention time came out at 652 s.

The compound `Cc1ccc(Cn2c(C(=O)NCc3ccccc3)cc3sccc32)cc1` came in with an RP-LC retention time of 864 s.

Regarding `O=C(c1ccccc1OCC1CCCNC1)N1CCOCC1` (configuration not stated), the RP-LC retention time was 576 s.

`Cc1cccc(-c2noc(-c3nn(CC(=O)NC4CC4)c4ccccc34)n2)c1` came in with an RP-LC retention time of 1040 s.
